In paper PMC6001238, “Iterative Chemical Engineering of Vancomycin Leads to Novel Vancomycin Analogs With a High in Vitro Therapeutic Index” (Frontiers in Microbiology, 2018):
Converted amounts (≈) assume the structure as drawn. Where two headings read alike, the source gives them in different places.

Columns and labels:
[1] = tested on: human cervix carcinoma (HeLa) cells; assay: Cytostatic activity, HeLa cell proliferation; type: cell-based; details: Homo sapiens, HeLa, 96 h; mean ± SD of three experiments; highest concentration tested 250 µM; 4 days; read-out: Toxicity (IC50) HeLa
Summary of the method: (§1)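 Readout: Coulter cell number after drug exposure at 37°C. Durations differ by line (L1210 2 days; CEM 3 days; HeLa 4 days). Stock suspension 300,000–500,000 cells/mL, diluted by mixing with compound. Endpoint: IC50 vs negative control.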

MRSA KS6 = assay: MIC, broth microdilution, MRSA KS6; type: cell-based, Staphylococcus aureus; details: Staphylococcus aureus MRSA KS6; read-out: MIC
Summary of the method: (§2)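 Following CLSI antimicrobial susceptibility standards, organisms were tested by broth microdilution. Controls comprised ultrapure water plus broth left uninoculated. For a single condition, 10 μM vancomycin (final) accompanied the analog or control agent.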

VE 148 (VanB) = assay: MIC, VanB-type VRE strain VE 148; type: cell-based, Enterococcus; details: Enterococcus; VE 148, VanB; read-out: MIC
Protocol: (§3) The minimum inhibitory concentration (MIC) was determined using the broth microdilution method according to the antimicrobial susceptibility testing standards of the clinical and laboratory standards institute ([Clinical and Laboratory Standards Institute [CLSI], 2012]). Ultrapure water and non-inoculated broth were used as controls. In one case, a final concentration of 10 μM vancomycin was included with the vancomycin analog or control antibiotic.

[2] = tested on: S. aureus VSSA (ATCC 6538); assay: MIC, broth microdilution, vancomycin-sensitive S. aureus (VSSA/MSSA, ATCC 6538); type: cell-based, Staphylococcus aureus
Summary of the method: as §2

[3] = tested on: Murine leukemia (L1210) cells; assay: Cytostatic activity, L1210 cell proliferation; type: cell-based; details: Mus musculus, L1210, 48 h; mean ± SD of three experiments; highest concentration tested 250 µM; 2 days; read-out: Toxicity (IC50) L1210
Summary of the method: as §1

MRSA = assay: Minimum bactericidal concentration against MRSA; type: cell-based, Staphylococcus aureus
Protocol: Plates were incubated overnight at 37°C and colony growth was inspected.

S. aureus VRSA = assay: MIC, broth microdilution, vancomycin-resistant S. aureus (VRSA); type: cell-based, Staphylococcus aureus
Summary of the method: as §2

VE 157 (VanB) = assay: MIC, VanB-type VRE strain VE 157; type: cell-based, Enterococcus; details: Enterococcus; VE 157, VanB; read-out: MIC
Protocol: as §3

E. faecalis VRE 6 = assay: MIC, broth microdilution, vancomycin-resistant E. faecalis VRE 6 (VanA); type: cell-based, Enterococcus faecalis
Summary of the method: as §2

E. faecalis VRE 53 = assay: MIC, broth microdilution, vancomycin-resistant E. faecalis VRE 53 (VanA); type: cell-based, Enterococcus faecalis
Summary of the method: as §2

[4] = tested on: L1210, CEM and HeLa cell lines; assay: Cytostatic activity, average or summary over L1210, CEM and HeLa; type: cell-based
Summary of the method: as §1

S. aureus VISA/HIP5827 = assay: MIC, broth microdilution, vancomycin-intermediate S. aureus VISA HIP5827; type: cell-based, Staphylococcus aureus
Summary of the method: as §2

E. faecalis VRE 37 = assay: MIC, broth microdilution, vancomycin-resistant E. faecalis VRE 37 (VanA); type: cell-based, Enterococcus faecalis
Summary of the method: as §2

VE 152 (VanB) = assay: MIC, VanB-type VRE strain VE 152; type: cell-based, Enterococcus; details: Enterococcus; VE 152, VanB; read-out: MIC
Protocol: as §3

MRSA KS1 = assay: MIC, broth microdilution, MRSA KS1; type: cell-based, Staphylococcus aureus
Summary of the method: as §2

[5] = tested on: Clostridium difficile AIU ribotype 027; assay: MIC, plate drop assay, C. difficile AIU ribotype 027; type: cell-based
Summary of the method: (§4)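 Twofold dilution series of test compounds were spotted onto C. difficile lawns in 0.4% BHI agar containing added calcium and magnesium salts. After overnight anaerobic incubation at 37°C, growth inhibition was scored by spot clearing; triplicate runs, ultrapure water negative control.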

[6] = tested on: Clostridium difficile ATJ ribotype 014/20; assay: MIC, plate drop assay, C. difficile ATJ ribotype 014/20; type: cell-based
Summary of the method: as §4

MRSA KS2 = assay: MIC, broth microdilution, MRSA KS2; type: cell-based, Staphylococcus aureus
Summary of the method: as §2

VE 149 (VanB) = assay: MIC, VanB-type VRE strain VE 149; type: cell-based, Enterococcus; details: Enterococcus; VE 149, VanB; read-out: MIC
Protocol: as §3

[7] = tested on: 24 clinical MRSA isolates; assay: MIC against a set of 24 clinical MRSA isolates (range, MIC50, TI); type: cell-based, Staphylococcus aureus
Protocol: as §3

VE 82 (VanC1) = assay: MIC, VanC1-type VRE strain VE 82; type: cell-based, Enterococcus gallinarum; details: Enterococcus gallinarum; VE 82, VanC1; read-out: MIC
Protocol: as §3

MRSA KS89 = assay: MIC, broth microdilution, MRSA KS89; type: cell-based, Staphylococcus aureus
Summary of the method: as §2

[8] = tested on: human T-lymphocyte (CEM) cells; assay: Cytostatic activity, CEM cell proliferation; type: cell-based; details: Homo sapiens, CCRF-CEM, 72 h; mean ± SD of three experiments; highest concentration tested 250 µM; 3 days; read-out: Toxicity (IC50) CEM
Summary of the method: as §1

E. faecalis VSE 1 = assay: MIC, broth microdilution, vancomycin-sensitive E. faecalis (VSE 1); type: cell-based, Enterococcus faecalis
Summary of the method: as §2

33 clinical VRE isolates = assay: MIC against a set of 33 clinical VRE isolates (range, MIC50, TI); type: cell-based, Enterococcus faecalis
Protocol: as §3

E. faecalis VRE 29 = assay: MIC, broth microdilution, vancomycin-resistant E. faecalis VRE 29 (VanA); type: cell-based, Enterococcus faecalis
Summary of the method: as §2

VE 150 (VanB) = assay: MIC, VanB-type VRE strain VE 150; type: cell-based, Enterococcus; details: Enterococcus; VE 150, VanB; read-out: MIC
Protocol: as §3

## CCCCCCCCCC(=O)N[C@@H](Cc1c[nH]c2ccccc12)C(=O)N[C@H](CC(N)=O)C(=O)N[C@@H](CC(=O)O)C(=O)N[C@@H]1C(=O)NCC(=O)N[C@@H](CCCN)C(=O)N[C@@H](CC(=O)O)C(=O)N[C@H](C)C(=O)N[C@@H](CC(=O)O)C(=O)NCC(=O)N[C@H](CO)C(=O)N[C@@H]([C@H](C)CC(=O)O)C(=O)N[C@@H](CC(=O)c2ccccc2N)C(=O)O[C@@H]1C [Daptomycin, reference compound]
[1]
  IC50: > 250 µM
MRSA KS6
  MIC: > 12.5 µM
VE 148 (VanB)
  MIC: 25 µM (≈ 40.5 µg/mL)
[2]; ATCC6538, Staphylococcus aureus VSSA, read-out: MIC
  MIC: > 6.25 µM
[2]; VSSA, ratio of MIC of vancomycin and MIC of analogue
  MIC-fold improvement vs. vancomycin: <0.1
[3]
  IC50: > 250 µM
MRSA
  MBC relative to MIC: MBC equaling their MIC values
S. aureus VRSA; Staphylococcus aureus VRSA, read-out: MIC
  MIC: 12.5 µM (≈ 20.3 µg/mL)
S. aureus VRSA; VRSA, ratio of MIC of vancomycin and MIC of analogue
  MIC-fold improvement vs. vancomycin: 8
VE 157 (VanB)
  MIC: 12.5 µM (≈ 20.3 µg/mL)
E. faecalis VRE 6; Enterococcus faecalis VRE 6 (vancomycin-resistant), read-out: MIC
  MIC: 6.25 µM (≈ 10.1 µg/mL)
E. faecalis VRE 6; VRE 6, ratio of MIC of vancomycin and MIC of analogue
  MIC-fold improvement vs. vancomycin: 32
E. faecalis VRE 53; Enterococcus faecalis VRE 53 (vancomycin-resistant), read-out: MIC
  MIC: 50 µM (≈ 81 µg/mL)
E. faecalis VRE 53; VRE 53, ratio of MIC of vancomycin and MIC of analogue
  MIC-fold improvement vs. vancomycin: 8
[4]; average IC50 used for TI in Table S5, >250 entered as 250, read-out: IC50
  IC50: 250 µM
[4]; average of L1210, CEM and HeLa, read-out: Toxicity (IC50) Average
  IC50: > 250 µM
S. aureus VISA/HIP5827; Staphylococcus aureus VISA/HIP5827, read-out: MIC
  MIC: > 12.5 µM
S. aureus VISA/HIP5827; VISA/HIP5827, ratio of MIC of vancomycin and MIC of analogue
  MIC-fold improvement vs. vancomycin: <0.5
E. faecalis VRE 37; Enterococcus faecalis VRE 37 (vancomycin-resistant), read-out: MIC
  MIC: 50 µM (≈ 81 µg/mL)
E. faecalis VRE 37; VRE 37, ratio of MIC of vancomycin and MIC of analogue
  MIC-fold improvement vs. vancomycin: 8
VE 152 (VanB)
  MIC: 25 µM (≈ 40.5 µg/mL)
MRSA KS1; MRSA KS1, ratio of MIC of vancomycin and MIC of analogue
  MIC-fold improvement vs. vancomycin: 0.05
MRSA KS1; Staphylococcus aureus MRSA KS1, read-out: MIC
  MIC: 12.5 µM (≈ 20.3 µg/mL)
[5]; C. difficile AIU ribotype 027
  MIC-fold improvement vs. vancomycin: 29
[5]; Clostridioides difficile, C. difficile AIU ribotype 027, plate drop assay
  MIC: 1.56 µM (≈ 2.53 µg/mL)
[6]; C. difficile ATJ ribotype 014/20
  MIC-fold improvement vs. vancomycin: 22
[6]; Clostridioides difficile, C. difficile ATJ ribotype 014/20, plate drop assay
  MIC: 1.56 µM (≈ 2.53 µg/mL)
MRSA KS2; MRSA KS2, ratio of MIC of vancomycin and MIC of analogue
  MIC-fold improvement vs. vancomycin: 0.05
MRSA KS2; Staphylococcus aureus MRSA KS2, read-out: MIC
  MIC: 12.5 µM (≈ 20.3 µg/mL)
VE 149 (VanB)
  MIC: 25 µM (≈ 40.5 µg/mL)
[7]; 24 clinical MRSA isolates
  MIC Range: 0.78 to 12.5 µM
[7]; Staphylococcus aureus, median MIC, 24 clinical MRSA isolates, read-out: MIC50
  MIC50: 0.78 µM (≈ 1.26 µg/mL)
[7]; in vitro therapeutic index, MRSA
  TI (IC50/MIC50): 321
VE 82 (VanC1)
  MIC: 12.5 µM (≈ 20.3 µg/mL)
MRSA KS89; MRSA KS8 (head; KS89 in title), ratio of MIC of vancomycin and MIC of analogue
  MIC-fold improvement vs. vancomycin: 0.1
MRSA KS89; Staphylococcus aureus MRSA KS8 (head; KS89 in title), read-out: MIC
  MIC: 6.25 µM (≈ 10.1 µg/mL)
[8]
  IC50: > 250 µM
E. faecalis VSE 1; VSE1, Enterococcus faecalis VSE 1 (vancomycin-sensitive), read-out: MIC
  MIC: > 6.25 µM
E. faecalis VSE 1; VSE 1, ratio of MIC of vancomycin and MIC of analogue
  MIC-fold improvement vs. vancomycin: <0.2
33 clinical VRE isolates; 33 clinical VRE isolates
  MIC Range: 3.13 to 12.5 µM
33 clinical VRE isolates; Enterococcus, median MIC, 33 clinical VRE isolates, read-out: MIC50
  MIC50: 6.25 µM (≈ 10.1 µg/mL)
33 clinical VRE isolates; in vitro therapeutic index, VRE
  TI (IC50/MIC50): 40
E. faecalis VRE 29; Enterococcus faecalis VRE 29 (vancomycin-resistant), read-out: MIC
  MIC: 50 µM (≈ 81 µg/mL)
E. faecalis VRE 29; VRE 29, ratio of MIC of vancomycin and MIC of analogue
  MIC-fold improvement vs. vancomycin: 8
VE 150 (VanB)
  MIC: 25 µM (≈ 40.5 µg/mL)
